Measured values from patent US9487553B2, “Boranophosphate analogues of cyclic nucleotides” (BIOLOG LIFE SCIENCE INSTITUTE FORSCHUNGSLABOR UND …, priority 2011, dated 2016).

How the values were obtained:
[1] = Degradation Example 8: oxidation with hydrogen peroxide, monitored by HPLC; assay type: physicochemical; conditions: after 1 hour at RT
Procedure: Finally, with the Sp-isomer of 8-bromoguanosine-3′,5′-cyclic boranophosphate (Sp-8-Br-cGMPB, example 6) also the oxidative stability of a cyclic boranophosphate with a modified guanine nucleobase was investigated and again compared to the corresponding phosphorothioate Rp-8-bromoguanosine-3′,5′-cyclic phosphorothioate (Rp-8-Br-cGMPS, Biolog).
Both compounds were treated together with two 10 μl doses of 30% aqueous hydrogen peroxide (Merck). During more than four hours, oxidative degradation was monitored by HPLC (RP-18, 15 Vol.-% acetonitrile, 20 mM triethylammonium formate buffer, pH 6.5, 1.5 ml/min., UV 263 nm) and corresponding peak areas were recorded and compared (Tab. 7).

[2] = Degradation Example 5: oxidation with hydrogen peroxide, monitored by HPLC; assay type: physicochemical; conditions: after 1 hour at RT
Procedure: Thus, the cyclic boranophosphate 6-chloropurine-1-β-D-ribofuranoside-3′,5′-cyclic boranophosphate, Rp-isomer (Rp-6-Cl-cPuMPB, example 42) together with the corresponding phosphorothioate 6-chloropurine-1-β-D-ribofuranoside-3′,5′-cyclic phosphorothioate, Sp-isomer (Sp-6-Cl-cPuMPS, Biolog) as a control were treated repeatedly with μl doses of 30% aqueous hydrogen peroxide (Merck). During one hour, oxidative degradation was monitored by HPLC (RP-18, 15 Vol.-% acetonitrile, 20 mM triethylammonium formate buffer, pH 6.5, 2 ml/min., UV 263 nm) and corresponding peak areas were recorded, integrated and compared (Tab. 3).

[3] = Degradation Example 6: oxidation with hydrogen peroxide, monitored by HPLC; assay type: physicochemical; conditions: after 1 hour at RT
Procedure: Thus, 0.1 μmol of the cyclic boranophosphate 2-chloroadenosine-3′,5′-cyclic boranophosphate, Sp-isomer (Sp-2-Cl-cAMPB, example 71) and 0.1 μmol of the corresponding phosphorothioate 2-chloroadenosine-3′,5′-cyclic phosphorothioate, Rp-isomer (Rp-2-Cl-cAMPS, Biolog) as a control, were each dissolved in 100 μl of water, combined and treated with 10 μl of 30% aqueous hydrogen peroxide (Merck), and another 10 μl after one hour. During 2.5 hours, oxidative degradation was monitored by HPLC (RP-18, 15 Vol.-% acetonitrile, 20 mM triethylammonium formate buffer, pH 6.5, 1.5 ml/min., UV 262 nm). Corresponding peak areas were recorded, integrated and compared (Tab. 5).

[4] = biological target: protein kinase A type II alpha holoenzyme (Homo sapiens, UniProt P13861); assay: Photometric (Cook) assay with protein kinase A type II alpha holoenzyme; assay type: biochemical; conditions: activation of protein kinase A type II; data not shown
Sequence of protein kinase A type II alpha holoenzyme (P13861 whole entry): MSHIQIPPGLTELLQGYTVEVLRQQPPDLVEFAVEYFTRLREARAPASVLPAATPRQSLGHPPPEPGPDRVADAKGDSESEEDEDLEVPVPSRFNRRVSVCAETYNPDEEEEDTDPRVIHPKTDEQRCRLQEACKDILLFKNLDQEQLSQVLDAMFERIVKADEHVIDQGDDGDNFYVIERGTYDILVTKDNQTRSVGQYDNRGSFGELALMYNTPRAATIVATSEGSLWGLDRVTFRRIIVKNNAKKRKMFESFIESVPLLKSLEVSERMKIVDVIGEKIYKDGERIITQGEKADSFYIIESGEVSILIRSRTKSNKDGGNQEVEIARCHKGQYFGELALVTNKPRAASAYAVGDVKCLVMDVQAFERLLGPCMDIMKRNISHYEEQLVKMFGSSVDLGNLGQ
From the text: In another similar experiment the properties of Rp- and Sp-8-Br-cAMPB towards protein kinase A type II a were investigated in the photometric assay (Cook, P. F., Neville, M. E., Jr., Vrana, K. E., Hartl, F. T. and Roskoski, R., Jr., Biochemistry 21, 5794-5799 (1982))

PDE 1 = assay: Resistance towards phosphodiesterase: incubation with PDE 1 from bovine heart, HPLC; conditions: bovine, pH 7.2
Procedure: (§1) For this purpose 0.1 μmol of Rp-8-bromoadenosine-3′,5′-cyclic boranophosphate (example 1) and Sp-8-bromoadenosine-3′,5′-cyclic boranophosphate […] dissolved in TRIS buffer pH 7.2 containing calcium chloride and calmodulin and incubated with PDE type I from bovine brain (Sigma-Aldrich) at 37° C. Activity of the enzyme was checked by hydrolysis of cyclic AMP. Stability was monitored by HPLC (RP-18, 11 Vol.-% propanol-2, 20 mM TEAF buffer, pH 6.8, 1 ml/min., UV 264 nm). […] This strategy of testing PDE performance was applied accordingly in degradation examples 10 and 11.
(§2) Thus, Rp-8-Br-cAMPB (example 1) and Sp-8-Br-cAMPS (Biolog, Bremen/Germany) were incubated with PDE 1 from bovine heart (Sigma-Aldrich) and monitored by HPLC as described above.
(§3) Rp-2′-O-Me-cAMPB (example 7) and Sp-2′-O-Me-cAMPS (Biolog, Bremen/Germany).

[5] = Degradation Example 4: oxidation with hydrogen peroxide, monitored by HPLC; assay type: physicochemical; conditions: after 3 hours at RT
Procedure: As a control, the corresponding cyclic nucleotide with phosphorothioate modification (Rp-8-BT-2′-O-Me-cAMPS, Biolog) had been added. The oxidation process was monitored by reversed phase HPLC (RP-18, 30 Vol.-% acetonitrile, 20 mM triethylammonium formate buffer, pH 8.3, 2 ml/min, UV 282 nm). The areas of both peaks were recorded, integrated and compared (Tab. 2).

[6] = biological target: T1, protein kinase G type I α, activated by cGMP (Homo sapiens, UniProt Q13976); assay: Suppression of cGMP-stimulated protein kinase G type I alpha activity; assay type: biochemical; conditions: 10 nM, 100 nM and 1 μM; cGMP 200 nM
T1 sequence (Q13976 1-671): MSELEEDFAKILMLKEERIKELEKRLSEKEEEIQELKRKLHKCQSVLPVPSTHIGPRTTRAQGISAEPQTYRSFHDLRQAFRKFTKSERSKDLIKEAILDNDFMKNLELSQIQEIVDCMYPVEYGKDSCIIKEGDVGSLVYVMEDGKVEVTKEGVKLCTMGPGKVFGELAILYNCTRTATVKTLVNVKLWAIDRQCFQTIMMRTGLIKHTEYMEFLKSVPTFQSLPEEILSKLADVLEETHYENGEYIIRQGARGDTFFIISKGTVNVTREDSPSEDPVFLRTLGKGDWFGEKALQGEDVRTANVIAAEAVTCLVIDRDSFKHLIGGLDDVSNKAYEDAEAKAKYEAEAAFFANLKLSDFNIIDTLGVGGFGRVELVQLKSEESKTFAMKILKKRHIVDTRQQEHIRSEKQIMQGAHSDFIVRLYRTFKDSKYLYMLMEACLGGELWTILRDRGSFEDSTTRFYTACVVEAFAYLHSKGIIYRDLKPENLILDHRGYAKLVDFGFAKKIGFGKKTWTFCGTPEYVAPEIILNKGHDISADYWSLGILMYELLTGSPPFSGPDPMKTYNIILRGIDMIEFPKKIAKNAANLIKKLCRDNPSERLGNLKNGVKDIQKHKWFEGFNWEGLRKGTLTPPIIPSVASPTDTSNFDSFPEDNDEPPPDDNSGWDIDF

[7] = biological target: protein kinase A type I alpha holoenzyme (Homo sapiens, UniProt P10644); assay: Standard photometric (Cook) assay with protein kinase A type I alpha holoenzyme; assay type: biochemical; conditions: holoenzyme RIα
Sequence of protein kinase A type I alpha holoenzyme (P10644 whole entry): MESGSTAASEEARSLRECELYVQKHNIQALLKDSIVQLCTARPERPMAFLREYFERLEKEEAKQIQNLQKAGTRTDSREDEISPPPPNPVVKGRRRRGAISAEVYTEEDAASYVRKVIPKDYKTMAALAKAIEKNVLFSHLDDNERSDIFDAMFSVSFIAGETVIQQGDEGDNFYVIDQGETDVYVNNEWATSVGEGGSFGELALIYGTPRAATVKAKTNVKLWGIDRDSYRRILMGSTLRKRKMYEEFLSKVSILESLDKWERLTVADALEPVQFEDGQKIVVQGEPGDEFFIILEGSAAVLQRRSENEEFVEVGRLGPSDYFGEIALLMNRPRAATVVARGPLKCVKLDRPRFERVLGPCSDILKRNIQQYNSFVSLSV
From the text: In a first experiment, the biological activity of the Rp- and Sp-isomer of 8-bromoadenosine-3′,5′-cyclic boranophosphate (examples 1 and 2) has been tested with the holoenzyme of protein kinase A type I alpha (FIGS. 3 and 4) using a standard photometric assay (Cook, P. F.; Neville, M. E., Jr.; Vrana, K. E.; Hartl, F. T. and Roskoski, R., Jr., Biochemistry 21, 5794-5799 (1982)).
As a control, two boranophosphate analogues with a 2′-O-methyl modification (Rp-2′-O-Me-cAMPB and Sp-2′-O-Me-cAMPB, examples 7 & 8) have been tested by the same type of assay with protein kinase A type I alpha as well.
FIG. 5 depicts the activity overview of four different cyclic boranophosphate analogues with protein kinase A type I alpha holoenzyme. 9108: Sp-2′-O-Me-cAMPB; 9109: Rp-2′-O-Me-cAMPB; 9110: Sp-8-Br-cAMPB; 9111: Rp-8-Br-cAMPB; controls: B 001: Rp-8-Br-cAMPS. Control: cAMP. “Cook Assay” with Holoenzyme RIα.

PDE IV (A4B) = biological target: T2, PDE IV (A4B) (Homo sapiens, UniProt P27815); assay: Stability against PDE IV, HPLC; assay type: in vitro ADME; conditions: several days
T2 construct: Houslay lab, Glasgow/Scotland (obtained from another laboratory)
T2 sequence (P27815 whole entry): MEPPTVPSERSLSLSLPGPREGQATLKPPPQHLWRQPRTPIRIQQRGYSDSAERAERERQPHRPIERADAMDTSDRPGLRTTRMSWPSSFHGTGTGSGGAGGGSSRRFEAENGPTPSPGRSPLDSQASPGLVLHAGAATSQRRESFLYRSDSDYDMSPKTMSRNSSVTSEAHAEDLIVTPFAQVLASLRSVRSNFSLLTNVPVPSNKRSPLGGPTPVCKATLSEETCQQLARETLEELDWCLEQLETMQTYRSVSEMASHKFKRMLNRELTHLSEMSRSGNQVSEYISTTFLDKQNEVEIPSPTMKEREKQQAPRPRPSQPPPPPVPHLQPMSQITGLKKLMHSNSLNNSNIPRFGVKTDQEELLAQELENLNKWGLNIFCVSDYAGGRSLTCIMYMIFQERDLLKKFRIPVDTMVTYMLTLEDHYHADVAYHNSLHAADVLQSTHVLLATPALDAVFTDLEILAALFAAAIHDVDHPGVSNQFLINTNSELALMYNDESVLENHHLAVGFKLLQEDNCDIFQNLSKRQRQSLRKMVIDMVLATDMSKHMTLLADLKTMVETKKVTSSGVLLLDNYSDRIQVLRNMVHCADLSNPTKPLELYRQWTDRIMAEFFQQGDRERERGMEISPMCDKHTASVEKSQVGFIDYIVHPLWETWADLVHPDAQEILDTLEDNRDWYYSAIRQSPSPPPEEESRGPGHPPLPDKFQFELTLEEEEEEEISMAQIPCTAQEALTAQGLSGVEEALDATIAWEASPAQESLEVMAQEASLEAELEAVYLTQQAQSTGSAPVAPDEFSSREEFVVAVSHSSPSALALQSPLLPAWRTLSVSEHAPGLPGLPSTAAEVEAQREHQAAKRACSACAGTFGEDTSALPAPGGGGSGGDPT
Procedure: Next, stability of the disclosed boranophosphates against PDE IV (A4B, Houslay lab, Glasgow/Scotland) was tested in similar experiments as described above.

[8] = system: PDE type I from bovine brain; assay: Resistance towards phosphodiesterase: incubation with PDE type I from bovine brain, HPLC; conditions: PDE type I from bovine brain, 37° C., up to 8 days
Procedure: Activity of the enzyme was checked by hydrolysis of cyclic AMP. Stability was monitored by HPLC (RP-18, 11 Vol.-% propanol-2, 20 mM TEAF buffer, pH 6.8, 1 ml/min., UV 264 nm).

PDE 1 from bovine heart = assay: Resistance towards phosphodiesterase: incubation with PDE 1 from bovine heart, HPLC; conditions: PDE 1 from bovine heart, up to 8 days of incubation
Procedure: as §1, §2, §3

## Nc1nc2c(nc(Br)n2[C@@H]2O[C@@H]3COP(O)(=S)O[C@H]3[C@H]2O)c(=O)[nH]1 (some centres unmarked) [Rp-8-Br-cGMPS, Rp-8-bromoguanosine-3′,5′-cyclic phosphorothioate, reference compound]
[1]
  degraded: 15%

## 6-Chloropurine-1-β-D-ribofuranoside-3′,5′-cyclic boranophosphate, Rp-isomer [Rp-6-Cl-cPuMPB]
[2]
  peak area, % of the original area: 93%

## 2-Chloroadenosine-3′,5′-cyclic boranophosphate, Rp-isomer [Rp-2-Cl-cAMPB]
[3]
  peak area, % of the original area: 90%

## Nc1ncnc2c1nc(Br)n2C1OC2COP(O)(=S)OC2C1O (centres unmarked) [Sp-8-Br-cAMPS, Sp-8-bromoadenosine-3′,5′-cyclic phosphorothioate, reference compound]
[4]
  EC50: 710 nM
PDE 1
  half-life: ~50 h

## 8-Benzylthio-2′-O-methyladenosine-3′,5′-cyclic boranophosphate, SP-isomer [Sp-8-BT-2′-O-Me-cAMPB]
[5]
  peak area, % of the original area: 73%

## B[PH]1(O)OC[C@H]2O[C@@H](n3c(Br)nc4c(=O)[nH]c(N)nc43)C(O)[C@@H]2O1 (stereo partly drawn) [Sp-8-Br-cGMPB, 8-Bromoguanosine-3′,5′-cyclic boranophosphate, Sp-isomer]
[6]
  antagonism of protein kinase G: showed antagonistic potential
[1]
  peak area, % of the original area: 65%

## Nc1nc(Cl)nc2c1ncn2[C@@H]1O[C@@H]2COP(O)(=S)OC2[C@@H]1O (single isomer, unassigned) [Rp-2-Cl-cAMPS, 2-chloroadenosine-3′,5′-cyclic phosphorothioate, Rp-isomer, reference compound]
[3]
  degraded: 22%

## B[PH]1(O)OC[C@H]2O[C@@H](n3cnc4c(N)ncnc43)C(OC)[C@@H]2O1 (stereo partly drawn) [Rp-2′-O-Me-cAMPB, 2′-O-Methyladenosine-3′,5′-cyclic boranophosphate, Rp-isomer]
[7]
  effect on protein kinase A type I alpha holoenzyme: neither Rp- nor Sp-2′-O-Me-cAMPB did modulate the kinase in any way
PDE IV (A4B)
  stability against PDE IV: completely stable
[8]
  degradation by PDE: stable over the whole assay period
PDE 1 from bovine heart
  degradation by PDE: stable over the whole assay period

## O[C@@H]1[C@@H]2OP(O)(=S)OC[C@H]2O[C@H]1n1cnc2c(Cl)ncnc21 (single isomer, unassigned) [Sp-6-Cl-cPuMPS, 6-chloropurine-1-β-D-ribofuranoside-3′,5′-cyclic phosphorothioate, Sp-isomer, reference compound]
[2]
  degraded: 37%
